Data set [1] has as its target T1, Protein smoothened (Homo sapiens, UniProt Q99835). The experiment in a line: Inhibition of Smoothened transfected in HEK293 cells by binding assay. The data set is classed as cell-based.
Data set [2] addresses T1, Protein smoothened. In words: Inhibition of Smoothened transfected in HEK293 cells by transient transfection cell-based assay.
For data set [3], the species on record is Mus musculus. In words: Inhibition of hair growth in C3H/HeN mouse model assessed as inhibition of hair growth after 14 days. The data set is classed as functional.
Data set [4] is described as follows: Metabolic stability in human liver microsomes assessed as half life. The data set is classed as ADME, Microsome. On the technique in general: Liver microsomes are a subcellular fraction often used to study metabolism.
Data set [5] has as its target T2, D(4) dopamine receptor (Homo sapiens, UniProt P21917).
T2 sequence (P21917 whole entry): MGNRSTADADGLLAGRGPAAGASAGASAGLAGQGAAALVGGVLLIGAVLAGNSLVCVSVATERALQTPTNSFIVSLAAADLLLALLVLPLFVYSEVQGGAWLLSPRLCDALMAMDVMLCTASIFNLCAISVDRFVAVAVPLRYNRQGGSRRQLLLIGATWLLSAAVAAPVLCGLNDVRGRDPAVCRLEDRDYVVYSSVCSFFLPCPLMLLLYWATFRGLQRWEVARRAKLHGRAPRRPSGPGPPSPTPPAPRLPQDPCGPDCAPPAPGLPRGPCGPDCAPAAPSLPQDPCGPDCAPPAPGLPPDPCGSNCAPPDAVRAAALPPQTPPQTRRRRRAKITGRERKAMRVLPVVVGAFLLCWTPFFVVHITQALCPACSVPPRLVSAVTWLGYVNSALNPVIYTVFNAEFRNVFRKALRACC
The experiment in a line: Binding affinity to dopamine D4 receptor.

Data set [6] has as its target T3, Alpha-1B adrenergic receptor (Homo sapiens, UniProt P35368).
T3 sequence (P35368 whole entry): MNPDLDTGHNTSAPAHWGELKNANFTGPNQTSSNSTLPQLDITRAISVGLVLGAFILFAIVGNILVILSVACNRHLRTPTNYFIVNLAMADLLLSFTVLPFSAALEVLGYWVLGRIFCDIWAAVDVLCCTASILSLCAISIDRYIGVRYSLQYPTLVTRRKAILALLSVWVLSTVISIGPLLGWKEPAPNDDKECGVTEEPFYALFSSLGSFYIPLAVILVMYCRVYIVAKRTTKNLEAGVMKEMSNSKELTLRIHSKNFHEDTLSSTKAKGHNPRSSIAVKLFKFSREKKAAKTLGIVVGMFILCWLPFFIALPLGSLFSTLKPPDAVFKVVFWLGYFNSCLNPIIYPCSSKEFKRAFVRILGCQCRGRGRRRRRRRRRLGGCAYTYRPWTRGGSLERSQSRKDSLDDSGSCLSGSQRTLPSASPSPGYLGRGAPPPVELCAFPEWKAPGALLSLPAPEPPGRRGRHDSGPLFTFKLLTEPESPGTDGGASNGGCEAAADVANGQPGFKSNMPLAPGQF
In words: Binding affinity to adrenergic alpha-1b receptor.

For data set [7], the target named is T4, Alpha-1A adrenergic receptor (Homo sapiens, UniProt P35348).
T4 sequence (P35348 whole entry): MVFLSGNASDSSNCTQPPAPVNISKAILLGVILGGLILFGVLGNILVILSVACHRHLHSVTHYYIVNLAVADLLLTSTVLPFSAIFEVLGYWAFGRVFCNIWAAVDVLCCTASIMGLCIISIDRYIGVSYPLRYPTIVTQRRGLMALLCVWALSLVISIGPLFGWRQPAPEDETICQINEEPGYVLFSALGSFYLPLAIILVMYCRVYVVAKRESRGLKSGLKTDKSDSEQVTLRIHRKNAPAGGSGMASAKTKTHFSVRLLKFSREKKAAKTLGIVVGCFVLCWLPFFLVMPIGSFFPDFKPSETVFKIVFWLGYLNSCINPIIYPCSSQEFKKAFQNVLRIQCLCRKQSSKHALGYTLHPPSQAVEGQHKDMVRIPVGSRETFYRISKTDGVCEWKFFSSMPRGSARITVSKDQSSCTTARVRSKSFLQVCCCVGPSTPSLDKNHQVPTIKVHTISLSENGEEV
The experiment in a line: Binding affinity to adrenergic Alpha-1A receptor.

Data set [8] deals with Voltage-gated inwardly rectifying potassium channel KCNH2 (Homo sapiens, UniProt Q12809). In words: Binding affinity to human ERG.
Data set [9] concerns the target 5-hydroxytryptamine receptor 2A (Homo sapiens, UniProt P28223). The experiment in a line: Binding affinity to 5HT2A receptor.
The nature of data set [10]: Solubility of the compound. The data set is classed as physicochemical.
Data set [11] relates to Zone of skin. The experiment in a line: Permeability of the compound in human skin assessed as skin penetration relative to isobutylmethylxanthine. The data set is classed as ADME, tissue-based.
Data set [12] deals with hERG (KCNH2) (Homo sapiens, UniProt Q12809). In words: Inhibition of human ERG at 3 uM.
Data set [13] can be described thus: Metabolic stability in rat liver microsomes assessed as half life. The data set is classed as ADME, Microsome.
Data set [14] can be described thus: Apparent permeability from apical to basolateral side of cell membrane at 10 uM. The data set is classed as ADME. The settings on record: not told.
The target of data set [15] is T5, 5-hydroxytryptamine receptor 1A (Homo sapiens, UniProt P08908).
T5 sequence (P08908 whole entry): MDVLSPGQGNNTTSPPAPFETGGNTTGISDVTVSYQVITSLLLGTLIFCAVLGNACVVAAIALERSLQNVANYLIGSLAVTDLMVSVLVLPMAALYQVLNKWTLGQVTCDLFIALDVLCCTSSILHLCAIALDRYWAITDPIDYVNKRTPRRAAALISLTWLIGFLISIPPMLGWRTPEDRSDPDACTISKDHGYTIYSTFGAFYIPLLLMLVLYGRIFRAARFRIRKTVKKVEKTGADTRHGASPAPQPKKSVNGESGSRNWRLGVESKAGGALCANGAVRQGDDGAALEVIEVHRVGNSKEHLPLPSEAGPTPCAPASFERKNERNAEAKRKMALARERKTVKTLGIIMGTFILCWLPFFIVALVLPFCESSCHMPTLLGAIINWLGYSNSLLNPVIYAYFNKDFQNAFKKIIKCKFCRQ
The experiment in a line: Binding affinity to 5HT1A receptor.

The nature of data set [16]: Inhibition of CYP450. The data set is classed as ADME.
Data set [17] addresses 5-hydroxytryptamine receptor 7 (Homo sapiens, UniProt P34969). In words: Binding affinity to 5HT7 receptor.
The target in data set [18] is D(2) dopamine receptor (Homo sapiens, UniProt P14416). In words: Binding affinity to dopamine D2 receptor.
Data set [19] has as its target Beta-1 adrenergic receptor (Homo sapiens, UniProt P08588). The experiment in a line: Binding affinity to beta-1 adrenergic receptor.
Data set [20] deals with 5-hydroxytryptamine receptor 2B (Homo sapiens, UniProt P41595). The experiment in a line: Binding affinity to 5HT2B receptor.
In data set [21] the target is Beta-2 adrenergic receptor (Homo sapiens, UniProt P07550). The experiment in a line: Binding affinity to beta2 adrenergic receptor.
Data set [22] can be described thus: Binding affinity to calcium channel.
Data set [23] deals with D(1A) dopamine receptor (Homo sapiens, UniProt P21728). In words: Binding affinity to dopamine D1 receptor.

Consider 14 compounds from ChEMBL document CHEMBL1208761, “Smoothened antagonists for hair inhibition” (Bioorg Med Chem Lett, 2010).

≈ marks a conversion by molar mass, not a printed value. Where “and” joins values, the source holds several entries; their conditions need not be identical. Identical values can stand only once. Calls of active or inactive are those of the source. The calls are words filed in the database; no cut-off is given here.

T1 sequence (Q99835 whole entry): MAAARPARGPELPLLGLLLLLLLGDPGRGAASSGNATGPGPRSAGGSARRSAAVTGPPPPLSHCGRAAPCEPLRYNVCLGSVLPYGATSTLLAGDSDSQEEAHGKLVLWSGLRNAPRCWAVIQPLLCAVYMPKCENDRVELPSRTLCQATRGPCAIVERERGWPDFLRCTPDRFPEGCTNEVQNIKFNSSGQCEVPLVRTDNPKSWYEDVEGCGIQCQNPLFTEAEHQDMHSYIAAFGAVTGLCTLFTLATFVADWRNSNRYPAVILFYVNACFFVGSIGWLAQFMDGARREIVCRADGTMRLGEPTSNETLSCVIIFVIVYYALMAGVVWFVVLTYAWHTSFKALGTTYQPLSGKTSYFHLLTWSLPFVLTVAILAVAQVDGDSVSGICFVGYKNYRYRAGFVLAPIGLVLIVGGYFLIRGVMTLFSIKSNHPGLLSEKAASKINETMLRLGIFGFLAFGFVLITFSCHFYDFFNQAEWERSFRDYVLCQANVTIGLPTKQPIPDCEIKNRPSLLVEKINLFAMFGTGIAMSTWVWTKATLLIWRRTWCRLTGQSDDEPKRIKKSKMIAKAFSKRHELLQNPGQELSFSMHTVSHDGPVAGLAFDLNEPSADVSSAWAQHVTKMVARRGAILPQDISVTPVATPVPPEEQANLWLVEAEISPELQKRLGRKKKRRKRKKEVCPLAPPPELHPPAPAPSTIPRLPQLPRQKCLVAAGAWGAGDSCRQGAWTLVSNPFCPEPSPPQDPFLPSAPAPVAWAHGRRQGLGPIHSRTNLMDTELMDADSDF
Chain of 5-hydroxytryptamine receptor 2A (P28223 whole entry): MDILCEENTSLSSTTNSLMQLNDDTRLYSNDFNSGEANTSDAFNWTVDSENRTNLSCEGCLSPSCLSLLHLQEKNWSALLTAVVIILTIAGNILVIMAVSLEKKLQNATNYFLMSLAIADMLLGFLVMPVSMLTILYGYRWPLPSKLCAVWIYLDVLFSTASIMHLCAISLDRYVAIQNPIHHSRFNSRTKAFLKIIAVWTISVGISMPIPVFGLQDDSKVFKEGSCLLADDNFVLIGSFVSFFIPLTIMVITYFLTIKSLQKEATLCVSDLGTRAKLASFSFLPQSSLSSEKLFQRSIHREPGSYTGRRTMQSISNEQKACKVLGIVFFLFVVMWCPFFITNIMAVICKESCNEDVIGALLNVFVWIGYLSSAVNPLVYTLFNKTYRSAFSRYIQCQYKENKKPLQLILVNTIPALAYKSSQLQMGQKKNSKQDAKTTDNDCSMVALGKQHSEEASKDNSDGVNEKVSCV
Chain of 5-hydroxytryptamine receptor 2B (P41595 whole entry): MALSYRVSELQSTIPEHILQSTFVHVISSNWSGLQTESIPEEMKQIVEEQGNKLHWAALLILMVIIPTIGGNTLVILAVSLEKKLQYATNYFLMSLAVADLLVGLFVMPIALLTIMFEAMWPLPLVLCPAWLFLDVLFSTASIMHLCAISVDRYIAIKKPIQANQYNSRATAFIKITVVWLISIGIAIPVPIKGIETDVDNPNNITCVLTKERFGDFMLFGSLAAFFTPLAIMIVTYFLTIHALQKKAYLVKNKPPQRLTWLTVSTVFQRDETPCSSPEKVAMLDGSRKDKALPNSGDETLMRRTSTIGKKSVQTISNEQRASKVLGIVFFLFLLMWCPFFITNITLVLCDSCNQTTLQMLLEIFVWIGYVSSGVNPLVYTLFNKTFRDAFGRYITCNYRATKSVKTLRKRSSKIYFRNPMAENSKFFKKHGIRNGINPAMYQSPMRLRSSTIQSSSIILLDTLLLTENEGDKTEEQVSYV
Chain of 5-hydroxytryptamine receptor 7 (P34969 whole entry): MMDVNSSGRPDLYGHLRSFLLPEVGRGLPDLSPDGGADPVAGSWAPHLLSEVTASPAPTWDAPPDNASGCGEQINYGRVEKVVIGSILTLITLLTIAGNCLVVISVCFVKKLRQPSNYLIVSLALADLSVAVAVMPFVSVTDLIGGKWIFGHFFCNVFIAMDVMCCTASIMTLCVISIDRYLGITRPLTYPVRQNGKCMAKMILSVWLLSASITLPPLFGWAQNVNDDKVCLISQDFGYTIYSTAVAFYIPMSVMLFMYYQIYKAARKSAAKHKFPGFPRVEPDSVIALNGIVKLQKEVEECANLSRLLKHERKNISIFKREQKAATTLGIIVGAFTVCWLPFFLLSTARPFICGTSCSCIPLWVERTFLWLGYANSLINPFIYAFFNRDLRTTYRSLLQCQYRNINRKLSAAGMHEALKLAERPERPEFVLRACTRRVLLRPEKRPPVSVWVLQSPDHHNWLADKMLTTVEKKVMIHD
Chain of hERG (KCNH2) (Q12809 whole entry): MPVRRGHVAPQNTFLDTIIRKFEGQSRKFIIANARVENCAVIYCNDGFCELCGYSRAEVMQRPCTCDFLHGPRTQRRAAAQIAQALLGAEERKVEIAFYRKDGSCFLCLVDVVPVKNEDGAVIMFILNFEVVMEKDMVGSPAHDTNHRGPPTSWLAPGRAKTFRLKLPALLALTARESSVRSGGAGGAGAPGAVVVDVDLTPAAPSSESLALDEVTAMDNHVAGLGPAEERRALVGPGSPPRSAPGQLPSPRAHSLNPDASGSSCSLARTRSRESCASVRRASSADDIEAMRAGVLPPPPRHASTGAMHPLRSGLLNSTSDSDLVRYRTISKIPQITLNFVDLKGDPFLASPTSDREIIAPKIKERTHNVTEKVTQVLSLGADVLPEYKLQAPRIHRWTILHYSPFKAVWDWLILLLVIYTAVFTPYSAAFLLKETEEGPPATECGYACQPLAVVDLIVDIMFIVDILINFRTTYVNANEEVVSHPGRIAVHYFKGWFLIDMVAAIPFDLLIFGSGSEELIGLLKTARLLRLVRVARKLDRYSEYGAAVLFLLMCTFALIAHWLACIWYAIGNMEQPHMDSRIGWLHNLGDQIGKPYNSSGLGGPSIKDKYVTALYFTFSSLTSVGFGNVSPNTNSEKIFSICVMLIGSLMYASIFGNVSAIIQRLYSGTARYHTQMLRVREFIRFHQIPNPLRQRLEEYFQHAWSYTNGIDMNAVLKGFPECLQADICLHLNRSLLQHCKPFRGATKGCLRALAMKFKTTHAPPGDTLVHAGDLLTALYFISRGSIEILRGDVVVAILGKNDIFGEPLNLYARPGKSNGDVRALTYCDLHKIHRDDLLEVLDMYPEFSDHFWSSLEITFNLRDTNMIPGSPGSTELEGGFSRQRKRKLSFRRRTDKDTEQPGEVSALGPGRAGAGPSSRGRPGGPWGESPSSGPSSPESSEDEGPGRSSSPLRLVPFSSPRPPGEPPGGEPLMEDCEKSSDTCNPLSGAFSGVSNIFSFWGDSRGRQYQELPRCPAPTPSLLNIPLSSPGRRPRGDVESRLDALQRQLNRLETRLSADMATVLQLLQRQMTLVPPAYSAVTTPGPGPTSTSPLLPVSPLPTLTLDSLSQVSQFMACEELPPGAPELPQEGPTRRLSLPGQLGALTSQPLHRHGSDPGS
Chain of Voltage-gated inwardly rectifying potassium channel KCNH2 (Q12809 whole entry): as above
Chain of Beta-1 adrenergic receptor (P08588 whole entry): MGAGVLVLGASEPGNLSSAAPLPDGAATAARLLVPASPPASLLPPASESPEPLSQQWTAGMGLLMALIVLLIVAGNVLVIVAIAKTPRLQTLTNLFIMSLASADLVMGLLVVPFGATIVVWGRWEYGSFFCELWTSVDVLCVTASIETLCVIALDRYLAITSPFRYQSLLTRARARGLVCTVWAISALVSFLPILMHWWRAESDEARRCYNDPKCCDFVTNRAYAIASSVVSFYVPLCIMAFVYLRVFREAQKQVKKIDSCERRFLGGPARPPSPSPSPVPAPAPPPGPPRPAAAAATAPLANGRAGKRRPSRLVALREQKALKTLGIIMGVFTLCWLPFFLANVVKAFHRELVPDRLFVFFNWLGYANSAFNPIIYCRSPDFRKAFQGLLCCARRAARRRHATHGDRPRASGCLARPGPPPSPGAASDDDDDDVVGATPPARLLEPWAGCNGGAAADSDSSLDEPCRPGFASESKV

For the compound `COc1cccc(N2CCN(Cc3cnn(-c4ccc(F)cc4)c3C)CC2)c1`, the IC50 in data set [1] was determined as 5 nM; in data set [2], 64.7 nM.

As to `COc1ccc(N2CCN(Cc3cn(-c4ccccc4)nc3C)CC2)cc1`, the IC50 in data set [1] and in [2] was more than 5000 nM in each case.

Take `Cc1nn(-c2ccccc2)c(Cl)c1CN1CCN(c2ccc(F)cc2)CC1`: the half-inhibitory concentration (IC50) in [1] amounted to 10 nM; in data set [2], 1860 nM.

As to `Cc1c(CN2CCN(c3cccc(C(F)(F)F)c3)CC2)cnn1-c1ccccc1`, the values for the IC50 in [1] and in data set [2] were 333 nM and 328 nM, respectively.

On to `NCCCC(N)(C(=O)O)C(F)F` (configuration not stated) [EFLORNITHINE], for which the “inhibition (INH)” value in [3] was 13.9%.

As to `COc1cccc(F)c1OC1CN(Cc2cnn(-c3ccccc3)c2C)C1`, the half-life is 30.2 min in [4] and 9.7 min in [13]. The “hair growth inhibition (active/inactive call)” value in data set [3] was “Active”. The IC50 came out at 124 nM in [1] and 8.27 nM in data set [2]. The Ki is 148 nM and > 1000 nM in data set [5]; more than 1000 nM in data set [6]; 76 nM in [7]; more than 1000 nM in data set [8]; more than 1000 nM in [9]; more than 1000 nM in data set [15]. For the same compound, the concentration in solution in [10] (solubility) came to 79 µg/mL (≈ 215 µM). For the same compound, in data set [11], the Ratio was 0.52. In [12], this compound yielded an inhibition at 3 µM of 56%. Also, the Papp A→B at 10 µM in data set [14] worked out at 11.3 ×10⁻⁶ cm/s. In data set [16], the “inhibition (INH)” value is “Not Active”.

In the case of `COc1ccc(OC)c(C2CCN(Cc3cnn(-c4ccccc4F)c3C)C2)c1` (configuration not stated), the Ki is 15 nM in [17]; more than 1000 nM in [18]; more than 1000 nM in data set [19]; 180 nM in data set [20]; more than 1000 nM in [9]; more than 1000 nM in data set [21]. The Ki in data set [22] was more than 1000 nM; in data set [23] it was more than 1000 nM; in data set [15], 103 nM. In addition, the “hair growth inhibition (active/inactive call)” value in data set [3] was “Active”. Moreover, the IC50 in data set [1] was 216 nM; in data set [2] it was 40.8 nM.

On to `COc1ccc(N2CCN(Cc3cnn(-c4ccccc4)c3C)CC2)cc1`, for which the IC50 in [1] was determined as 126 nM; in data set [2] it was 105 nM.

In the case of `Cc1nn(-c2ccccc2)c(C)c1/C=N/N1CCN(Cc2ccccc2)CC1`, the “inhibition (INH)” value in data set [3] worked out at 3%. The IC50 came out at 25 nM in data set [1] and 4.74 nM in data set [2].

With `COc1cccc(N2CCN(Cc3c(C)nn(-c4ccc(F)cc4)c3C)CC2)c1`, the IC50 in data set [1] is 20 nM; in data set [2], 823 nM.

`COc1ccc(N2CCN(Cc3c(C)nn(-c4ccc(F)cc4)c3C)CC2)cc1`: the values for the IC50 in data set [1] and in data set [2] were 2000 nM and 1690 nM, respectively.

Consider `Cc1nn(-c2ccccc2)cc1CN1CCN(c2ccc(F)cc2)CC1`, for which the half-inhibitory concentration (IC50) in data set [1] and in data set [2] was more than 5000 nM throughout.

`COc1ccccc1N1CCN(Cc2c(C)nn(-c3ccccc3)c2C)CC1`: the IC50 in data set [1] is more than 5000 nM; in data set [2] it was 1870 nM.

As for `Cc1c(CN2CCN(c3ccccc3)CC2)cnn1-c1ccccc1`, the IC50 in data set [1] turned out to be 96 nM; in data set [2], 78.4 nM.

The term IC50 denotes the concentration at which inhibition is half-maximal. Read a low IC50 as higher potency. The term half-life denotes how long it takes for the measured level to halve. For orientation: Ki means the dissociation constant of the complex between target and ligand, obtained from inhibition or displacement. Broadly, the solubility is the concentration that dissolves in the medium under given conditions. The term inhibition denotes how much of the control response was suppressed. As usually defined, the Papp A→B is how fast a substance crosses the layer from the apical side.
